In ChEMBL document CHEMBL6103565, “Current strategies in design and synthesis of antifungals hybrid and chimeric diazine derivatives” (Bioorg Med Chem, 2025):
≈ marks a conversion by molar mass, not a printed value.

How the values were obtained:
Assay type in all cases: functional
Candida albicans [1] = assay: Antifungal activity against Candida albicans assessed as diameter of inhibition zone
Pichia kudriavzevii = assay: Antifungal activity against Candida krusei ATCC 6258
Candida albicans [2] = assay: Antifungal activity against Candida albicans assessed as zone of inhibition by disc diffusion method
Candida albicans [3] = assay: Antifungal activity against Candida albicans assessed as zone of inhibition
Candida albicans [4] = assay: Antifungal activity against Candida albicans assessed as reduction in fungal growth incubated for 18 hrs by broth microdilution method
Saccharomyces cerevisiae [5] = assay: Antimicrobial activity against Saccharomyces cerevisiae assessed as zone of inhibition
Aspergillus flavus [6] = assay: Antifungal activity against Aspergillus flavus assessed as zone of inhibition by disc diffusion method
Candida albicans [7] = assay: Antifungal activity against Candida albicans SC5314 assessed as reduction in fungal growth incubated for 72 hrs by broth microdilution method
Rhizopus microsporus = assay: Antifungal activity against Rhizopus microsporus assessed as diameter of inhibition zone
Aspergillus fumigatus [8] = assay: Antifungal activity against Aspergillus fumigatus assessed as reduction in fungal growth
Saccharomyces cerevisiae [9] = assay: Antimicrobial activity against Saccharomyces cerevisiae assessed as zone of inhibition by disc diffusion method
Aspergillus niger [10] = assay: Antifungal activity against Aspergillus niger assessed as zone of inhibition
Nakaseomyces glabratus = assay: Antifungal activity against Candida glabrata ATCC 90030
Candida parapsilosis = assay: Antifungal activity against Candida parapsilosis ATCC 22019; conditions: Lodderomyces parapsilosis
Candida albicans [11] = assay: Antifungal activity against Candida albicans assessed as zone of inhibition by serial dilution and disc diffusion method
Candida albicans [12] = assay: Antimicrobial activity against Candida albicans ATCC 64124 assessed as reduction in microbial growth by CLSI protocol based micro-broth dilution method
Cryptococcus neoformans [13] = assay: Antifungal activity against Cryptococcus neoformans assessed as reduction in fungal growth incubated for 24 hrs by broth microdilution method
Candida albicans [14] = assay: Antifungal activity against Candida albicans ATCC 10231
Candida albicans [15] = assay: Antifungal activity against Candida albicans ATCC 10231 assessed as zone of inhibition incubated for 24 hrs by disc diffusion method
Candida albicans [16] = assay: Antifungal activity against Candida albicans assessed as fungal growth inhibition
Candida albicans [17] = assay: Antifungal activity against Candida albicans NRRL-Y477 assessed as zone of inhibition by disc diffusion method
Aspergillus niger [18] = assay: Antifungal activity against Aspergillus niger ATCC 16404 assessed as inhibition of mycelial growth relative to control
Candida albicans [19] = assay: Antifungal activity against Candida albicans ATCC 10231 assessed as inhibition of mycelial growth relative to control
Geotrichum candidum = assay: Antifungal activity against Geotrichum candidum
Cryptococcus neoformans [20] = assay: Antifungal activity against Cryptococcus neoformans
Microsporum audouinii = assay: Antifungal activity against Microsporum audouinii
Trichophyton rubrum = assay: Antifungal activity against Trichophyton rubrum assessed as diameter of zone inhibition
Aspergillus fumigatus [21] = assay: Antifungal activity against Aspergillus fumigatus
Aspergillus fumigatus [22] = assay: Antifungal activity against Aspergillus fumigatus RCMB 002568 assessed as diameter of zone inhibition
Aspergillus fumigatus [23] = assay: Antifungal activity against Aspergillus fumigatus assessed as reduction in fungal growth incubated for 20 to 24 hrs by CLSI based micro-dilution analysis; conditions: time 20-24 hrs
Candida albicans [24] = assay: Antifungal activity against Candida albicans RCMB 005036 assessed as diameter of zone inhibition
Fusarium graminearum = assay: Fungicidal activity against Gibberella zeae assessed as fungal inhibitory rate at 200 ug/ml relative to control
Botryosphaeria dothidea = assay: Fungicidal activity against Botryosphaeria dothidea assessed as fungal inhibitory rate at 200 ug/ml relative to control
Sclerotinia sclerotiorum = assay: Fungicidal activity against Sclerotinia sclerotiorum assessed as fungal inhibitory rate at 200 ug/ml relative to control
[25] = test system: Syncephalastrum racemosum; assay: Antifungal activity against Syncephalastrum racemosum assessed as zone of inhibition
Aspergillus niger [26] = assay: Antifungal activity against Aspergillus niger assessed as zone of inhibition by disc diffusion method
Aspergillus flavus [27] = assay: Antimicrobial activity against Aspergillus flavus assessed as zone of inhibition
Candida albicans [28] = assay: Antifungal activity against azole-resistant Candida albicans ATCC 10231 assessed as fungal growth inhibition incubated for 24 hrs by CLSI protocol based broth microdilution method
Candida albicans [29] = assay: Antifungal activity against Candida albicans assessed as reduction in fungal growth incubated for 72 hrs by agar well diffusion method
Candida albicans [30] = assay: Antifungal activity against azole-resistant Candida albicans ATCC 18804 assessed as fungal growth inhibition incubated for 24 hrs by CLSI protocol based broth microdilution method
Candida albicans [31] = assay: Antifungal activity against azole-resistant Candida albicans ATCC 18804 assessed as reduction in fungal growth by XTT assay
Aspergillus fumigatus [32] = assay: Antifungal activity against Aspergillus fumigatus assessed as zone of inhibition
Aspergillus fumigatus [33] = assay: Antifungal activity against Aspergillus fumigatus assessed as reduction in fungal growth incubated for 72 hrs by agar well diffusion method
Candida albicans [34] = assay: Antifungal activity against azole-resistant Candida albicans ATCC 10231 assessed as reduction in fungal growth by XTT assay

Structure (SMILES): OC(Cn1cncn1)(Cn1cncn1)c1ccc(F)cc1F [FLUCONAZOLE]
- inhibition zone (IZ) (Candida albicans [1]): 10 mm
- MIC (Pichia kudriavzevii): 0.78 µg/mL (≈ 2.55 µM)
- inhibition zone (IZ) (Candida albicans [2]): 2.1 mm
- inhibition zone (IZ) (Candida albicans [3]): 22 mm
- MIC (Candida albicans [4]): 0.125 µg/mL (≈ 0.408 µM)
- inhibition zone (IZ) (Saccharomyces cerevisiae [5]): 11 mm
- inhibition zone (IZ) (Aspergillus flavus [6]): 2.9 mm
- MIC (Candida albicans [7]): ≤ 0.25 µg/mL
- inhibition zone (IZ) (Rhizopus microsporus): 12 mm
- MIC (Aspergillus fumigatus [8]): < 212 µg/mL
- inhibition zone (IZ) (Saccharomyces cerevisiae [9]): 13 mm
- inhibition zone (IZ) (Aspergillus niger [10]): 20 mm
- MIC (Nakaseomyces glabratus): 0.78 µg/mL (≈ 2.55 µM)
- MIC (Candida parapsilosis): 0.78 µg/mL (≈ 2.55 µM)
- inhibition zone (IZ) (Candida albicans [11]): 24 mm
- MIC (Candida albicans [12]): > 64 µg/mL
- MIC (Cryptococcus neoformans [13]): 8 µg/mL (≈ 26.1 µM)
- MIC50 (Candida albicans [14]): 0.78 µg/mL (≈ 2.55 µM)

Structure (SMILES): C[C@@H]1[C@H](O)[C@@H](C)/C=C/C=C/CC/C=C/C=C/C=C/C=C/[C@H](O[C@@H]2O[C@H](C)[C@@H](O)[C@H](N)[C@@H]2O)C[C@@H]2O[C@](O)(C[C@@H](O)[C@H](O)CC[C@@H](O)C[C@@H](O)C[C@@H](O)CC(=O)O[C@H]1C)C[C@H](O)[C@H]2C(=O)O
- inhibition zone (IZ) (Candida albicans [15]): 26 mm
- MIC (Candida albicans [16]): 1 µg/mL (≈ 1.08 µM)
- inhibition zone (IZ) (Candida albicans [17]): 23 mm
- inhibition (INH) (Aspergillus niger [18]): 66%
- inhibition (INH) (Candida albicans [19]): 63%

Structure (SMILES): Clc1ccccc1C(c1ccccc1)(c1ccccc1)n1ccnc1 [CLOTRIMAZOLE]
- MIC (Geotrichum candidum): 5 µg/mL (≈ 14.5 µM)
- MIC (Cryptococcus neoformans [20]): 2 µg/mL (≈ 5.8 µM)
- MIC (Microsporum audouinii): 4 µg/mL (≈ 11.6 µM)
- inhibition zone (IZ) (Trichophyton rubrum): 14 mm
- MIC (Aspergillus fumigatus [21]): 68 µg/mL (≈ 197 µM)

Structure (SMILES): CC(=O)N1CCN(c2ccc(OC[C@H]3CO[C@](Cn4ccnc4)(c4ccc(Cl)cc4Cl)O3)cc2)CC1
- MIC (Pichia kudriavzevii): 0.78 µg/mL (≈ 1.47 µM)
- inhibition zone (IZ) (Aspergillus fumigatus [22]): 23 mm
- MIC (Nakaseomyces glabratus): 0.78 µg/mL (≈ 1.47 µM)
- MIC (Aspergillus fumigatus [23]): 18 µg/mL (≈ 33.9 µM)
- inhibition zone (IZ) (Candida albicans [24]): 25 mm
- MIC (Candida parapsilosis): 0.78 µg/mL (≈ 1.47 µM)
- MIC50 (Candida albicans [14]): 0.78 µg/mL (≈ 1.47 µM)

Structure (SMILES): Cc1ncc(NC(=O)c2cc(Cl)nn2-c2ncccc2Cl)c(-c2noc(C)n2)n1
- inhibition at 200 µg/mL (Fusarium graminearum): 54.9%
- inhibition at 200 µg/mL (Botryosphaeria dothidea): 85.9%
- inhibition at 200 µg/mL (Sclerotinia sclerotiorum): 54.1%

Structure (SMILES): COc1ccc(NC(=O)c2nn(-c3ccccc3)c(=N)c(C#N)c2C)cc1
- inhibition zone (IZ) (Aspergillus fumigatus [22]): 20 mm
- inhibition zone (IZ) (Candida albicans [24]): 26 mm

Structure (SMILES): C[C@@H]1[C@H](O)[C@@H](C)/C=C/C=C/C=C/C=C/C=C/C=C/C=C/[C@H](O[C@@H]2O[C@H](C)[C@@H](O)[C@H](N)[C@@H]2O)C[C@@H]2O[C@](O)(C[C@@H](O)C[C@@H](O)[C@H](O)CC[C@@H](O)C[C@@H](O)CC(=O)O[C@H]1C)C[C@H](O)[C@H]2C(=O)O [AMPHOTERICIN B]
- inhibition zone (IZ) [25]: 20 mm
- inhibition zone (IZ) (Aspergillus niger [26]): 17 mm
- inhibition zone (IZ) (Aspergillus flavus [27]): 15 mm
- MIC (Candida albicans [28]): 1.9 µg/mL (≈ 2.06 µM)
- MIC (Candida albicans [29]): 3.9 µg/mL (≈ 4.22 µM)
- MIC (Candida albicans [30]): 0.2 µg/mL (≈ 0.216 µM)
- MIC (Candida albicans [31]): 0.2 µg/mL (≈ 0.216 µM)
- MIC (Candida albicans [12]): 1 µg/mL
- inhibition zone (IZ) (Aspergillus fumigatus [32]): 24 mm
- MIC (Aspergillus fumigatus [33]): 1.95 µg/mL (≈ 2.11 µM)
- MIC (Cryptococcus neoformans [13]): 0.39 µg/mL (≈ 0.422 µM)
- MIC (Candida albicans [34]): 1.9 µg/mL (≈ 2.06 µM)

Structure (SMILES): Cc1nnc2c(C#N)c(N)n(-c3ccc(N)cc3)nc1-2
- MIC (Candida albicans [29]): 3.9 µg/mL (≈ 14.7 µM)
- MIC (Aspergillus fumigatus [33]): 0.9 µg/mL (≈ 3.39 µM)
